Experimental data reported in patent US11414387B2, “Oxoacridinyl acetic acid derivatives and methods of use” (Stingthera, Inc., priority 2017, dated 2022).
pIC50: −log10 of the molar value.

Columns and labels:
[1] = biological target: hSTING-R232 (Homo sapiens (Human), UniProt Q86WV6, H232R); assay: STING differential scanning fluorimetry (DSF) assay, WT human STING; details: WT (R232) human STING aa140-379, net shift in melting temperature
[2] = biological target: hSTING-WT (Homo sapiens (Human), UniProt Q86WV6, H232R); assay: Radiometric filtration binding competition assay, hSTING-WT
Description: (§1) A radiometric filtration binding competition assay was performed to quantify the binding affinity of compounds of the present application for the human or mouse STING protein, or associated HAQ human isoform. […] The resulting dose response was fit by non-linear regression to determine an IC50 value, from which a Ki value for each compound was extrapolated.
(§2) The resulting complexes were then filtered, dried, and scintillation fluid was added and the remaining radio signal was measured to determine the degree of compound ligand inhibition. This assay format was optimized for both the WT and HAQ isoforms of the human protein and the mouse orthologue protein.
(§3) Probe Concentration: Minimum concentration that achieved max assay window • g. Assay Format: Scintillation Proximity Bead or Filtration Binding Plate • h. […] Assay incubation times for successive incubation steps
(§4) WT-hSWAT: WT_FBA_HIS-SUMO-hSWAT IC50 (μM) (“WT”=Wild-type); HAQ-hSWAT: HAQ_FBA_HIS-SUMO-hSWAT IC50 (μM) (“HAQ”=human HAQ allele of STING protein); and WT-mSWAT: MOUSE_FBA_HIS-SUMO-mnSWAT IC50 (μM) which is the mouse isoform of STING protein.

[3] = biological target: STING protein (Homo sapiens (Human), UniProt Q86WV6, H232R); assay: Cell based reporter assay of IRF activation (IRF-luciferase), THP1-dual-KI R232; details: read-out: THP1-dual-KI R232_IRF(Luciferase)_Activity Maximum measured (%)
[4] = biological target: mSTING (Mus musculus, UniProt Q3TBT3); assay: Radiometric filtration binding competition assay, mSTING
Description: as §1, §2, §3, §4

Chain of hSTING-R232 (Q86WV6 140-379 H232R): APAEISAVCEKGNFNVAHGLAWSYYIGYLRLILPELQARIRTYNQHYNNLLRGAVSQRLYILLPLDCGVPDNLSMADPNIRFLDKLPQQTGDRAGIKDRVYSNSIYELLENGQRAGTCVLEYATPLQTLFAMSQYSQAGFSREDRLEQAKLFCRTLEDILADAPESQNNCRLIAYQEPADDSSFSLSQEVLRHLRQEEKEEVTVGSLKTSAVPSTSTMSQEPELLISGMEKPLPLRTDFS
Chain of hSTING-WT (Q86WV6 140-379 H232R): as above
Chain of STING protein (Q86WV6 whole entry H232R): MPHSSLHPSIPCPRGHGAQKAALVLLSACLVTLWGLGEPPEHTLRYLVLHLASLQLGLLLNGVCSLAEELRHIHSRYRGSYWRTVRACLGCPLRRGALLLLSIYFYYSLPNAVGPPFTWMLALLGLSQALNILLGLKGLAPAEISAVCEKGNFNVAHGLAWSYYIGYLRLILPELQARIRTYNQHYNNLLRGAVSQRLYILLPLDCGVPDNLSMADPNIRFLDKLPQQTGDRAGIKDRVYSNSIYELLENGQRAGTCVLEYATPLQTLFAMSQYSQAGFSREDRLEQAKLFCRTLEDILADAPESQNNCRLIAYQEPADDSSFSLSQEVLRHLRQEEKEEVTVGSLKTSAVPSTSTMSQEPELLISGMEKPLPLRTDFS

| Compound | WT_DSF_hSWAT Tm Shift (° C.) [1] | pIC50 [2] | Emax [3] | pIC50 [4] |
| --- | --- | --- | --- | --- |
| C[C@H](O)COc1c(Cl)ccc2c(=O)c3ccccc3n(CC(=O)O)c12 [Compound 302] | A (“A” < 0° C.) | < 3.52 | < 5% | < 3.52 |
| COc1c(Cl)ccc2c(=O)c3cc(N)c(C(C)C)cc3n(CC(=O)O)c12 [Compound 320] | A (“A” < 0° C.) | 3.52 to 4.00 | < 5% | < 3.52 |
| COc1c(Cl)c(N)cc2c(=O)c3ccccc3n(CC(=O)O)c12 [Compound 316] | B (“B” = 0-2° C.) | < 3.52 | < 5% | < 3.52 |
| O=C(O)Cn1c2ccccc2c(=O)c2ccc(Cl)c(-c3ccccc3)c21 [Compound 256] | C (“C” = 2-7° C,) | 3.52 to 4.00 |  | 4.00 to 4.70 |
| COc1cc(Cl)c(OC)c2c1c(=O)c1ccccc1n2CC(=O)O [Compound 313] | B (“B” = 0-2° C.) | < 3.52 | < 5% | < 3.52 |
| COc1c(Cl)ccc2c(=O)c3cc(O)c(C(C)C)cc3n(CC(=O)O)c12 [Compound 317] | B (“B” = 0-2° C.) | < 3.52 | < 5% | < 3.52 |
| C[C@@H](Oc1c(Cl)ccc2c(=O)c3ccccc3n(CC(=O)O)c12)c1ccccc1 [Compound 296] | A (“A” < 0° C.) | < 3.52 | < 5% | < 3.52 |
| O=C(O)Cn1c2cc(C3=CCC(O)CC3)ccc2c(=O)c2ccc(Cl)c(Cl)c21 (stereo not shown) [Compound 213] | C (“C” = 2-7° C,) | 3.52 to 4.00 |  | 4.00 to 4.70 |
| O=C(O)Cn1c2cc(N3CCCCC3)ccc2c(=O)c2ccc(Cl)c(Br)c21 [Compound 198] | C (“C” = 2-7° C,) | 3.52 to 4.00 |  | 3.52 to 4.00 |
| CCOc1c(Cl)ccc2c(=O)c3ccc(C)cc3n(CC(=O)OC)c12 [Compound 322] | B (“B” = 0-2° C.) | < 3.52 | 5 to 25% | < 3.52 |
| COc1c(Cl)c(O)cc2c(=O)c3ccccc3n(CC(=O)O)c12 [Compound 315] | B (“B” = 0-2° C.) | < 3.52 | < 5% | < 3.52 |
| C#CCOc1c(Cl)ccc2c(=O)c3ccccc3n(CC(=O)O)c12 [Compound 272] | B (“B” = 0-2° C.) | 3.52 to 4.00 | < 5% | < 3.52 |
| C[C@H](Oc1c(Cl)ccc2c(=O)c3ccccc3n(CC(=O)O)c12)c1ccccc1 [Compound 295] | A (“A” < 0° C.) | 3.52 to 4.00 | < 5% | < 3.52 |
| COc1c(Cl)ccc2c(=O)c3cc(N(C)C)c(C(C)C)cc3n(CC(=O)O)c12 [Compound 319] | A (“A” < 0° C.) | < 3.52 | < 5% | < 3.52 |
| [N-]=[N+]=NCc1c(Cl)ccc2c(=O)c3ccccc3n(CC(=O)O)c12 [Compound 305] | B (“B” = 0-2° C.) | < 3.52 | < 5% | < 3.52 |
| CCOC(=O)Cn1c2cc(C)ccc2c(=O)c2ccc(Cl)c(OCC)c21 [Compound 321] | B (“B” = 0-2° C.) | < 3.52 | 5 to 25% | < 3.52 |
| O=C(O)Cn1c2ccccc2c(=O)c2ccc(Cl)c(-c3cccnc3)c21 [Compound 334] | C (“C” = 2-7° C,) | < 3.52 | < 5% |  |
| CSc1ccc2c(=O)c3ccc(Cl)c(Cl)c3n(CC(=O)O)c2c1 [Compound 137] | C (“C” = 2-7° C,) | 3.52 to 4.00 | 25 to 50% |  |

More lines, now with the values ahead:

| WT_DSF_hSWAT Tm Shift (° C.) [1] | pIC50 [2] | Emax [3] | pIC50 [4] | Compound |
| --- | --- | --- | --- | --- |
| D (“D” > 7° C.) | > 4.70 | > 50% | > 4.70 | COc1c(Cl)ccc2c(=O)c3ccc(Nc4ccccc4OC(F)(F)F)cc3n(CC(=O)O)c12 [Compound 286] |
| D (“D” > 7° C.) | 4.00 to 4.70 | > 50% | > 4.70 | COc1c(Cl)ccc2c(=O)c3ccc(-c4cccc(N)c4)cc3n(CC(=O)O)c12 [Compound 275] |
| D (“D” > 7° C.) | 4.00 to 4.70 | > 50% | > 4.70 | CCSc1c(Cl)ccc2c(=O)c3ccc(C)cc3n(CC(=O)O)c12 [Compound 304] |
| D (“D” > 7° C.) | 4.00 to 4.70 | > 50% | 4.00 to 4.70 | COc1c(Cl)ccc2c(=O)c3ccc(C4CCCOC4)cc3n(CC(=O)O)c12 (stereo not shown) [Compound 253] |
| C (“C” = 2-7° C,) | 4.00 to 4.70 | 25 to 50% | 4.00 to 4.70 | O=C(O)Cn1c2cc(-c3ccoc3)ccc2c(=O)c2ccc(Cl)c(Cl)c21 [Compound 183] |
| C (“C” = 2-7° C,) | 4.00 to 4.70 | > 50% | 3.52 to 4.00 | COc1c(Cl)ccc2c(=O)c3cc(Br)c(C(C)C)cc3n(CC(=O)O)c12 [Compound 268] |
| D (“D” > 7° C.) | > 4.70 | > 50% | > 4.70 | CSc1c(Cl)ccc2c(=O)c3ccc(-c4ccc(O)cc4)cc3n(CC(=O)O)c12 [Compound 271] |
| D (“D” > 7° C.) | > 4.70 | > 50% | > 4.70 | CSc1c(Cl)ccc2c(=O)c3ccc(C(C)C)cc3n(CC(=O)O)c12 [Compound 281] |
| D (“D” > 7° C.) | 4.00 to 4.70 | > 50% | 4.00 to 4.70 | CSc1c(Cl)ccc2c(=O)c3ccc(C)cc3n(CC(=O)O)c12 [Compound 279] |
| D (“D” > 7° C.) | > 4.70 | 25 to 50% | 4.00 to 4.70 | CC(C)Sc1c(Cl)ccc2c(=O)c3ccc(C(C)(C)C)cc3n(CC(=O)O)c12 [Compound 290] |
| A (“A” < 0° C.) | 4.00 to 4.70 | < 5% | 3.52 to 4.00 | O=C(O)Cn1c2ccccc2c(=O)c2ccc(Cl)c(Oc3nccc4ccccc34)c21 [Compound 243] |
| D (“D” > 7° C.) | 4.00 to 4.70 | 25 to 50% | 4.00 to 4.70 | Cc1ccc2c(=O)c3ccc(Cl)c(OCc4ccccc4)c3n(CC(=O)O)c2c1 [Compound 285] |
| A (“A” < 0° C.) | 4.00 to 4.70 |  | < 3.52 | Cc1c(C(C)C)ccc2c(=O)c3ccc(Cl)c(Cl)c3n(CC(=O)O)c12 [Compound 193] |
| D (“D” > 7° C.) | > 4.70 | > 50% |  | CC(C)Nc1ccc2c(=O)c3ccc(Cl)c(-c4ccccc4)c3n(CC(=O)O)c2c1 [Compound 336] |
| D (“D” > 7° C.) | 4.00 to 4.70 | > 50% |  | COc1c(Cl)ccc2c(=O)c3ccc(C4=CCOCC4)cc3n(CC(=O)O)c12 [Compound 254] |
| D (“D” > 7° C.) | 4.00 to 4.70 | > 50% |  | CCOc1c(Cl)ccc2c(=O)c3ccc(C)cc3n(CC(=O)O)c12 [Compound 282] |
| D (“D” > 7° C.) | > 4.70 | > 50% |  | COc1c(Cl)ccc2c(=O)c3ccc(-c4ccoc4)cc3n(CC(=O)O)c12 [Compound 277] |
